In ChEMBL document CHEMBL4340547, “Synthesis and SAR development of quinoline analogs as novel P2X7 receptor antagonists” (Bioorg Med Chem Lett, 2019):

Experiments:
[1] = Intrinsic clearance in human liver microsomes; type: ADME, Microsome; conditions: read-out: CLH
P2X purinoceptor 7 [2] = molecular target: T1, P2X purinoceptor 7 (Homo sapiens, UniProt Q99572); test: Antagonist activity at human P2X7 receptor expressed in HEK293 cells assessed as inhibition of BzATP-induced YO PRO dye uptake preincubated for 20 mins followed by YO PRO dye and BzATP addition measured after 30 mins by fluorescence assay; type: cell-based
T1 sequence (Q99572 whole entry): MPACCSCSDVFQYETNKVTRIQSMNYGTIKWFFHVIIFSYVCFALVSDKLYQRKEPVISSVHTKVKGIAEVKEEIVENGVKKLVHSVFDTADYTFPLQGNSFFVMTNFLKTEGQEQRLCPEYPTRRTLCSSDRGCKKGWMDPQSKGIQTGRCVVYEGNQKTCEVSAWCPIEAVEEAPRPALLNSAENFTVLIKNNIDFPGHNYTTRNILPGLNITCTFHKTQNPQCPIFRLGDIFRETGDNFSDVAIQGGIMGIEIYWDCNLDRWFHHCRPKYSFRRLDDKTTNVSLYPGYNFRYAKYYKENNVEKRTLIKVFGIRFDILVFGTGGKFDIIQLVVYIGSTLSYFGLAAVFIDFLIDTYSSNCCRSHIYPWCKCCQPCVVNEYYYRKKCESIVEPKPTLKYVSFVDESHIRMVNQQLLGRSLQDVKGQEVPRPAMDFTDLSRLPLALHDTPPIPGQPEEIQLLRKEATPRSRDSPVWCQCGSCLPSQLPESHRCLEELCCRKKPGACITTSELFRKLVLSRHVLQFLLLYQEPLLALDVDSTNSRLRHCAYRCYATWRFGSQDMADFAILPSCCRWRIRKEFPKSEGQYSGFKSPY

P2X purinoceptor 7 [3] = molecular target: T1, P2X purinoceptor 7; test: Antagonist activity at P2X7R in LPS-stimulated human THP1 cells assessed as inhibition of BzATP-induced IL-1beta release preincubated for 30 mins followed by BzATP stimulation and measured after 30 mins by sandwich ELISA
[4] = Intrinsic clearance in mouse liver microsomes; type: ADME, Microsome; conditions: read-out: CLH
[5] = Intrinsic clearance in rat liver microsomes; type: ADME, Microsome; conditions: read-out: CLH
MDR [6] = test: Apparent permeability across apical to basolateral side in MDCK cells expressing MDR; type: ADME, cell-based, Canis lupus familiaris; conditions: dog, MDCK-MDR1
MDR [7] = test: Efflux ratio of apparent permeability in MDCK cells expressing MDR; type: ADME, cell-based, Canis lupus familiaris; conditions: dog, MDCK-MDR1
P2X purinoceptor 7 [8] = molecular target: T2, P2X purinoceptor 7 (Rattus norvegicus, UniProt Q64663); test: Antagonist activity at rat P2X7 receptor assessed as inhibition of BzATP-induced YO PRO dye uptake preincubated for 20 mins followed by YO PRO dye and BzATP addition measured after 30 mins by fluorescence assay
T2 sequence (Q64663 whole entry): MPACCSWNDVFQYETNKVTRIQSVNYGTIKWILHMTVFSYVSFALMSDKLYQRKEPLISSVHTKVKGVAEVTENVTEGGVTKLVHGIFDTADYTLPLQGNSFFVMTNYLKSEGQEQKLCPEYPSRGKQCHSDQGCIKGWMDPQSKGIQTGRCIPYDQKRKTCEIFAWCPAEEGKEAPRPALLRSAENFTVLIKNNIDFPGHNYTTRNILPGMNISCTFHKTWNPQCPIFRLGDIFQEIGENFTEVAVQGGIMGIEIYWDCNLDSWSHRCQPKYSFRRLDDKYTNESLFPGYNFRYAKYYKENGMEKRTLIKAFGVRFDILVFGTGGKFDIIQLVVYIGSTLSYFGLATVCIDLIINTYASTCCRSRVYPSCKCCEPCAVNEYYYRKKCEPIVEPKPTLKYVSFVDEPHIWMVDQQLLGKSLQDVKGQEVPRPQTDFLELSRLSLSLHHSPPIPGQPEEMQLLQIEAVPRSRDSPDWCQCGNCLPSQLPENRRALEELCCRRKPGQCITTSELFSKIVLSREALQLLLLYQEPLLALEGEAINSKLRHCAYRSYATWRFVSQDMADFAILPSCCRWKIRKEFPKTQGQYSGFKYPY

P2X purinoceptor 7 [9] = molecular target: T3, P2X purinoceptor 7 (Mus musculus, UniProt Q9Z1M0); test: Antagonist activity at mouse P2X7 receptor assessed as inhibition of BzATP-induced YO PRO dye uptake preincubated for 20 mins followed by YO PRO dye and BzATP addition measured after 30 mins by fluorescence assay
T3 sequence (Q9Z1M0 whole entry): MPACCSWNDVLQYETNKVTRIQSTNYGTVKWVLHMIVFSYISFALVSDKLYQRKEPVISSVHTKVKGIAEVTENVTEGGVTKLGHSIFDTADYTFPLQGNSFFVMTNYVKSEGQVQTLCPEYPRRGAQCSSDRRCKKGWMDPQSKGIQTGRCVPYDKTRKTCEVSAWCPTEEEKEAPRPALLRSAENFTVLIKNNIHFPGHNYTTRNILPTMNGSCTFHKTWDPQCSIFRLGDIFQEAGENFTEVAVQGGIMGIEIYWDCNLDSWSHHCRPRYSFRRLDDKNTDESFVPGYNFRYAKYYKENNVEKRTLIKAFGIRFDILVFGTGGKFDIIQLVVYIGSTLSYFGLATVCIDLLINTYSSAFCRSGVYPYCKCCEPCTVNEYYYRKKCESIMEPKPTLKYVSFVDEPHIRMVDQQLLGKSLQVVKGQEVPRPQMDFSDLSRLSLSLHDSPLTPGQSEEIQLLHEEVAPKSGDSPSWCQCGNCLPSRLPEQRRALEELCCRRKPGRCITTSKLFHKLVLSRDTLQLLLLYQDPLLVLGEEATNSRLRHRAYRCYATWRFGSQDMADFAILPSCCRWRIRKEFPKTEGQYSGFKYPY

| Compound | microsomal CLint [1] [µL/min/mg] | IC50 (P2X purinoceptor 7 [2]) [nM] | IC50 (P2X purinoceptor 7 [3]) [nM] | microsomal CLint [4] [µL/min/mg] | microsomal CLint [5] [µL/min/mg] | Papp A→B (MDR [6]) [×10⁻⁶ cm/s] | efflux ratio (MDR [7]) | IC50 (P2X purinoceptor 7 [8]) [nM] | IC50 (P2X purinoceptor 7 [9]) [nM] |
| --- | --- | --- | --- | --- | --- | --- | --- | --- | --- |
| O=C(NC[C@]1(O)CCCC(F)(F)C1)c1c(Cl)ccc2nc(N3CC[C@@H](F)C3)ccc12 | 50 | 19 | 36.4 | 48 | 31 | 6.8 | 8.7 | 4300 | 4830 |
| CN(C)[C@@H]1CCN(c2ccc3c(C(=O)NCC4CCC(F)(F)CC4)c(Cl)ccc3n2)C1 | 45 | 27 | 40 | 50 | 22 | 6.2 | 7.2 |  |  |
| O=C(NCC1CCC(F)(F)CC1)c1c(Cl)ccc2nc(N3CC[C@@H](F)C3)ccc12 | 12 | 19 | 104 | 10 | 31 | 18.4 | 0.69 |  |  |
| O=C(NCC1CCC(F)(F)CC1)c1c(Cl)ccc2nc(C3=CCCC3)ccc12 |  | 36 | 90 |  |  |  |  |  |  |
| COCCNc1ccc2c(C(=O)NCC3CCC(F)(F)CC3)c(Cl)ccc2n1 |  | 89 | 180 |  |  |  |  |  |  |
| O=C(NCC1CCCC(F)(F)C1)c1c(Cl)ccc2nc(N3CC[C@@H](F)C3)ccc12 (stereo not given in full) | 41 | 4.9 | 118 | 102 | 102 | 16.4 | 1.8 |  | 2000 |
| CC1(C)OB(C2=CCCC2)OC1(C)C |  | 31 | 75 |  |  |  |  |  |  |
| CN(C)[C@H]1CCN(c2ccc3c(C(=O)NCC4CCC(F)(F)CC4)c(Cl)ccc3n2)C1 | 80 | 50 | 75 | 24 | 25 | 6 | 6.9 |  |  |
| O=C(NCC1CCC(F)(F)CC1)c1c(Cl)ccc2nc(N3CCC(CCO)C3)ccc12 (stereo not given) | 32 | 47 | 100 | 23 | 46 | 16.5 | 3.8 |  |  |
| O=C(NCC1CCC(F)(F)CC1)c1c(Cl)ccc2ncccc12 |  | 230 | 220 |  |  |  |  |  |  |
| O=C(NCC1CCC(F)(F)CC1)c1c(Cl)ccc2nc(N3CCC(NCCO)C3)ccc12 (stereo not given) | 17 | 10 | 12 | 10 | 10 | 0.18 | 114 |  |  |
| C[C@@H]1CCC[C@@](O)(CNC(=O)c2c(Cl)ccc3nc(N4CCC(N(C)C)C4)ccc23)C1 (stereo not given in full) | 44 | 3.6 | 6 | 52 | 32 | 1.4 | 39 | 549 | 2000 |
| O=C(NCC1CCC(F)(F)CC1)c1c(Cl)ccc2nc(NCCO)ccc12 |  | 72 | 76 |  |  |  |  |  |  |
| C[C@@H]1CCC[C@@](O)(CNC(=O)c2c(Cl)ccc3nc(N4CC[C@@H](C(C)(C)O)C4)ccc23)C1 | 75 | 14 | 7.4 | 68 | 10 | 1.5 | 34 | 130 | 3690 |
| C[C@H]1CCC[C@@](O)(CNC(=O)c2c(Cl)ccc3nc(N4CC[C@@H](F)C4)ccc23)C1 | 21 | 4.5 | 24.8 | 65 | 23 | 8.9 | 4.3 | 640 | 1400 |
| O=C(NCC1CCC(F)(F)CC1)c1c(Cl)ccc2nc(N3CCCC3)ccc12 | 87 | 37 | 108 to 110 | 49 | 57 | 31.8 | 1.2 |  |  |
| O=C(NCC1CCC(F)(F)CC1)c1c(Cl)ccc2nc(C3CCCC3)ccc12 |  | 94 | 160 |  |  |  |  |  |  |
| COCCOc1ccc2c(C(=O)NCC3CCC(F)(F)CC3)c(Cl)ccc2n1 |  | 25 | 140 |  |  |  |  |  |  |
